Experimental data from PMC7594877, “Multidirectional in vitro and in cellulo studies as a tool for identification of multi-target-directed ligands aiming at symptoms and causes of Alzheimer’s disease” (Journal of Enzyme Inhibition and Medicinal Chemistry, 2020).
Values joined by “and” are separate entries in the source; they are usually repeats but may differ in a detail not shown here. Identical values can stand only once. Like-named read-outs stand apart in the source and are kept apart here. Marks after values point to notes of the source that are not given here.

Columns and labels:
tau [1] = biological target: T1, tau (Homo sapiens, UniProt P10636); test: In cellulo tau aggregation inhibition, Thioflavin S fluorescence in E. coli overexpressing tau; assay type: cell-based, Escherichia coli; conditions: at 10 µM; mean of three experiments ± SEM
T1 construct: expressed in transfected cells; host or cells: E. coli BL21 (DE3) with pTARA (T7 RNA polymerase under pBAD) and pRKT42
T1 sequence (P10636 other isoform, or with tags, fused parts or gaps): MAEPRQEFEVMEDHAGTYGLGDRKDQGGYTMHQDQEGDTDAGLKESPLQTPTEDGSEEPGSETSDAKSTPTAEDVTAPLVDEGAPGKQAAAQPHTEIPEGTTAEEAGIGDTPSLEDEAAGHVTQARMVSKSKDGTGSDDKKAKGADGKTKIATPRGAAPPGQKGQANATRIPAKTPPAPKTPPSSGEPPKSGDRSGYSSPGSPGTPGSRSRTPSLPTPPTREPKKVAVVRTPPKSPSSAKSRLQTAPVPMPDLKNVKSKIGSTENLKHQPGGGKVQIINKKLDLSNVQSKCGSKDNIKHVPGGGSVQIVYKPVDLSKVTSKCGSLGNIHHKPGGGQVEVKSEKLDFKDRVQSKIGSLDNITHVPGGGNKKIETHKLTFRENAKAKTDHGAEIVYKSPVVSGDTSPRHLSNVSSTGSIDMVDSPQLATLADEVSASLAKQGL
Description: (§1) We screened multifunctional ligands from our in-house library for their anti-aggregating activity against Aβ and tau in the whole bacterial cells using the Thioflavin S (ThS) fluorescence assay. Bacterial cells overexpressing different proteins provide simple models that can be easily employed to monitor the mechanisms of protein aggregation related to a variety of conformational diseases[36]^,[37]. In our assay, E. coli system has been implemented to study the effect of potential Aβ42 and tau aggregation inhibitors within intact cells. The advantage of the test over in vitro tests is the fact that it considers the complexity of the cellular environment that plays a crucial role in tuning protein aggregation. This assay has been validated and successfully applied to assess the anti-aggregating properties of diverse chemical structures. Previously investigated tetrahydrobenzo[h][1,6] naphthyridine-6-chlorotacrine hybrid DP-128 was used as a reference compound[38]^,[39].
(§2) The assays were conducted according to the procedure described previously. All general chemicals were purchased from Sigma-Aldrich (St. Louis, MO) . Reagents for bacterial media were purchased from Conda (Sevilla, Spain). M9 minimal medium for 100 mL: 10 mL of salts 10× (0.68 g of Na2HPO4, 0.30 g of KH2PO4, 0.05 g of NaCl, 0.10 g of NH4Cl), 0.2 mL of 1 M MgSO4, 0.2 mL of 50 mM CaCl2, 2.5 mL of 20% glucose, and 87.1 mL of H2O.
(§3) E. coli competent cells BL21 (DE3) were transformed with the pET28a vector (Novagen, Inc., Madison, WI) carrying the DNA sequence of Aβ42 or with pTARA containing the RNA polymerase gene of T7 phage (T7RP) under the control of the promoter pBAD, then with pRKT42 vector encoding four repeats of tau protein in two inserts. For overnight culture preparation, 10 ml of M9 minimal medium containing 50 μg/mL of kanamycin (Aβ42) or 50 μg/mL of ampicillin and 12.5 μg/mL of chloramphenicol (tau) were inoculated with a colony of BL21 (DE3) bearing the plasmid Aβ42 or tau plasmids to be expressed at 37 °C and 180 rpm using an incubator shaker (Ovan, Barcelona, Spain). After overnight growth, the OD600 was usually 2 − 2.5. For expression of Aβ42 peptide/tau protein, 200 μL of overnight culture were transferred into Eppendorf tubes of 1.5 mL containing 790 μL of fresh M9 minimal medium with 50 μg/mL of kanamycin1 mM of isopropyl 1-thio-β-D-galactopyranoside (IPTG) (Aβ42) or 50 μg/mL of ampicillin, 12.5 μg/mL of chloramphenicol, 0.25% of arabinose (tau), and 25 μM of ThS and 10 μL of reference, tested compounds (1 mM in DMSO, final concentration: 10 μM) or DMSO. The samples were grown for 24 h at 37 °C and 180 rpm using an incubator shaker (Ovan). The samples with DMSO were prepared as a negative control (maximum level of Aβ42/tau, 0% of inhibition). In the positive controls, the M9 medium without IPTG (minimal level of Aβ42) or arabinose (minimal level of tau) was used. For absorbance and fluorescence determination, 200 μL of each Eppendorf tube was transferred in triplicate into 96-well plate. Finally, the fluorescence emission at 520 nm, when exciting at 440 nm and absorbance at 600 nm was recorded using the multi-mode microplate reader (Beckman Counter, Brea, CA). The absorbance at 600 nm (OD600) of these samples was assessed to check the bacterial growth and potential intrinsic toxicity of the tested compounds. Final data are the average of three independent experiments. DP-128 was used as a reference compound[38].

Aβ42 [2] = biological target: T2, Aβ42 (Homo sapiens, UniProt P05067); test: In cellulo Aβ42 aggregation inhibition, Thioflavin S fluorescence in E. coli overexpressing Aβ42; assay type: cell-based, Escherichia coli; conditions: at 10 µM; mean of three experiments ± SEM
T2 construct: expressed in transfected cells; host or cells: E. coli BL21 (DE3) with pET28a-Aβ42, IPTG-induced
T2 sequence (P05067 672-713): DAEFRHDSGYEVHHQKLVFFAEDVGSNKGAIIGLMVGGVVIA
Description: as §1, §2, §3

human BACE1 = biological target: T3, human BACE1 (Homo sapiens, UniProt P56817); test: In vitro inhibition of human BACE1, FRET assay; assay type: biochemical; conditions: mean of three experiments ± SEM; read-out: hBACE1 IC50
T3 construct: purchased Panvera, Madison, WI (BACE1 FRET Assay Kit); host or cells: baculovirus-expressed
T3 sequence (P56817 46-501): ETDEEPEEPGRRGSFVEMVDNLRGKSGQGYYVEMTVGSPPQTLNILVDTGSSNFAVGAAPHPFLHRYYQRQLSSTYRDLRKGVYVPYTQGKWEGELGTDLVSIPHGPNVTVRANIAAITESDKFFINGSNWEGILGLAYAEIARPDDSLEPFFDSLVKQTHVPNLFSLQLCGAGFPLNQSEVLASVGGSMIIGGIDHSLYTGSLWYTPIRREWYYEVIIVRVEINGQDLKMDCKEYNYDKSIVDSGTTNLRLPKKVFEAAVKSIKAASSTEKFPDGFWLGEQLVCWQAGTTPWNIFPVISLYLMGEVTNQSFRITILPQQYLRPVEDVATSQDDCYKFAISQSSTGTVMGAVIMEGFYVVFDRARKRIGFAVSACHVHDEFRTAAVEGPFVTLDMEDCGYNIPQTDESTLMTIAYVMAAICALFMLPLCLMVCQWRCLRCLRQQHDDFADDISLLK
Protocol: To further explore the multifunctional profile of the ligands, we screened them for their inhibitory activity against human BACE1 using spectrofluorometric assay (fluorescence resonance energy transfer (FRET)-based). […] Therefore, BACE1 inhibitors are now being tested in earlier stages of AD and in asymptomatic subjects at risk of AD, with the hope of blocking the disease process before it becomes irreversible.
BACE1 FRET Assay Kit (Panvera, Madison, WI) was performed according to the manufacturer’s protocol with small modifications. The Kit includes purified baculovirus-expressed BACE1 and specific peptide substrate (Rh-[…]-quencher), based on the “Swedish” mutant of APP. The analysis was carried, using 384-well black microplates and a microplate reader (EnSpire Multimode; PerkinElmer, Waltham, MA). The wavelength was optimised for the 553 nm excitation and 576 nm emission. Stock solutions of all test compounds were prepared in DMSO and further diluted with assay buffer (50 mM sodium acetate; pH 4.5). In the first step, 10 μL of BACE1 substrate was mixed with 10 μL of test compound (or assay buffer; i.e. blank sample), then 10 μL of the enzyme (1 U/mL) was added to start the reaction. After 60 min of incubation at 25 °C, 10 μL of stop solution (2.5 M sodium acetate) was applied to stop the reaction. The fluorescence signal was read at 576 nm. Percent of inhibition was calculated from [1 − (S60 − S0)/(C60 − C0)] × 100, where S0 and S60 are fluorescence intensities of the test sample (enzyme, substrate, test compound) at the beginning of the reaction and after 60 min, respectively, while C0 and C60 are analogical fluorescence intensities of the blank sample (enzyme, substrate, buffer). […] Each compound was analysed in triplicate. Commercially available BACE1 Inhibitor IV (Calbiochem, Merck; Nottingham, UK) was used as the reference compound. The IC50 values were calculated using nonlinear regression (GraphPad Prism 5 [GraphPad Software, San Diego, CA, 5.00]) by plotting the residual enzyme activities against the applied inhibitor concentration.

HepG2 cells = test: Cytotoxicity, MTS cell viability assay, HepG2; assay type: cell-based, human; conditions: 24 h, read-out: LC50 (cell viability, MTS)
Protocol: (§4) The human liver carcinoma HepG2 cell line was purchased from American Type Culture Collection (LGC Standards, UK). The human neuroblastoma SH-SY5Y cell line was purchased from American Type Culture Collection (CRL-2266, Manassas, VA). The cells were grown in Advanced Dulbecco’s modified Eagle’s medium (Sigma, St. Louis, MO) supplemented with 10% foetal bovine serum (FBS) (HyClone, Logan, UT), 2 mM L-glutamine, 50 U/mL penicillin and 50 μg/mL streptomycin (Sigma, St. Louis, MO) in a humidified atmosphere of 95% air and 5% CO2 at 37 °C, and grown to 80% confluence. Compound 3 was prepared as a stock solution of 20 mM in DMSO and was used at concentrations of 1–100 µM in case of HepG2 treatment, and at concentrations of 0.25–5 µM in case of SH-SY5Y treatment.
(§5) HepG2 and SH-SY5Y cells were seeded in 96-well plates (2 × 10^4/well) and assessed by MTS ([3–(4,5-dimethylthiazol-2-yl)-5–(3-carboxymethoxyphenyl)-2–(4-sulfophenyl)-2H-tetrazolium, inner salt) assay for their response to compound 3. Cells were treated as described above, and cell viability was assessed after 24 h using the CellTiter 96® Aqueous One Solution Cell Proliferation Assay (Promega, Madison, WI), following the manufacturer’s instructions. Absorbance was measured with an automatic microplate reader (Tecan Safire, Switzerland) at a wavelength of 492 nm.

SH-SY5Y cells = test: Cytotoxicity, MTS cell viability assay, SH-SY5Y; assay type: cell-based, human; conditions: 24 h, read-out: LC50 (cell viability, MTS)
Protocol: as §4, §5

h5-HT6 = biological target: h5-HT6; design: method as in PMID 27560283, PMID 29384656; conditions: read-out: 5-HT6 Ki; cited from earlier work
hAChE = conditions: read-out: hAChE IC50; cited from earlier work
eqBuChE = conditions: read-out: eqBuChE IC50; cited from earlier work
tau [3] = biological target: T1, tau; design: method as in di Pietro et al. 38; conditions: at 10 µM; ref di Pietro et al. 38; cited from earlier work
Aβ42 [4] = biological target: T2, Aβ42; design: method as in di Pietro et al. 38; conditions: at 10 µM; ref di Pietro et al. 38; cited from earlier work

| Compound | In cellulo tau inhibition % (tau [1]) | In cellulo Aβ42 inhibition % (Aβ42 [2]) | IC50 (human BACE1) | CC50 (HepG2 cells) [nM] | CC50 (SH-SY5Y cells) [nM] | Ki (h5-HT6) [nM] | IC50 (hAChE) [nM] | IC50 (eqBuChE) [nM] | In cellulo tau inhibition % (tau [3]) | In cellulo Aβ42 inhibition % (Aβ42 [4]) |
| --- | --- | --- | --- | --- | --- | --- | --- | --- | --- | --- |
| O=S(=O)(c1ccccc1)n1ccc2c(N3CCN(CCCCCCNc4c5c(nc6ccccc46)CCCC5)CC3)cccc21 [Compound 3] | 38% and 37.6 ± 2.4% | 30% and 29.7 ± 4.0% | 7300 nM and 7310 nM | 6400 | 1000 | 2 | 13 | 8 | – | – |
| O=C(NCCCCCCCCNc1c2c(nc3cc(Cl)ccc13)CCCC2)c1ccc2nc(-c3ccc(Cl)cc3)c3c(c2c1)NCCC3 [DP-128] | – | – | – | – | – | – | – | – | 68.7 ± 0.5^d % | 77.5 ± 0.9^d % |
